According to the supplement of paper PMC10307832:

Key:
Assay in all cases: relative viability (nuclei count vs DMSO), 5 days (fraction); higher = more cells survive
Axitinib + Linsitinib = compound: CNC(=O)c1ccccc1Sc1ccc2c(/C=C/c3ccccn3)n[nH]c2c1 [Axitinib] + C[C@]1(O)C[C@@H](c2nc(-c3ccc4ccc(-c5ccccc5)nc4c3)c3c(N)nccn32)C1 [Linsitinib] (partner 1 µM)
Summary of the method: (§1)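 Lung cancer cell lines in 1536-well plates got either a single drug or a fixed anchor-drug dose together with five library-drug doses (not always all listed) in √10 steps, by pin tool, on the day after seeding. Nuclei were counted after 5 days, and relative viability is the treated-to-vehicle ratio of nuclei counts. Values are medians of duplicate plates.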

Bemcentinib + OSI-027 = compound: Nc1nc(Nc2ccc3c(c2)CC[C@@H](N2CCCC2)CC3)nn1-c1cc2c(nn1)-c1ccccc1CCC2 [Bemcentinib] + COc1cccc2cc(-c3nc([C@H]4CC[C@H](C(=O)O)CC4)n4ncnc(N)c34)[nH]c12 [OSI-027] (partner 0.5 µM)
Summary of the method: as §1

Bemcentinib + AZD7762 = compound: Nc1nc(Nc2ccc3c(c2)CC[C@@H](N2CCCC2)CC3)nn1-c1cc2c(nn1)-c1ccccc1CCC2 [Bemcentinib] + NC(=O)Nc1cc(-c2cccc(F)c2)sc1C(=O)N[C@H]1CCCNC1 [AZD7762] (partner 0.2 µM)
Summary of the method: as §1

Bemcentinib + Pemetrexed = compound: Nc1nc(Nc2ccc3c(c2)CC[C@@H](N2CCCC2)CC3)nn1-c1cc2c(nn1)-c1ccccc1CCC2 [Bemcentinib] + Nc1nc2[nH]cc(CCc3ccc(C(=O)N[C@@H](CCC(=O)O)C(=O)O)cc3)c2c(=O)[nH]1 [Pemetrexed] (partner 0.2 µM)
Summary of the method: as §1

Row | Cell Line | relative viability (Axitinib + Linsitinib; first compound 0.005 µM) | relative viability (Axitinib + Linsitinib; first compound 0.01581 µM) | relative viability (Axitinib + Linsitinib; first compound 0.05 µM) | relative viability (Axitinib + Linsitinib; first compound 0.1581 µM) | relative viability (Axitinib + Linsitinib; first compound 0.5 µM) | relative viability (Bemcentinib + OSI-027; first compound 0.04 µM) | relative viability (Bemcentinib + OSI-027; first compound 0.1265 µM) | relative viability (Bemcentinib + OSI-027; first compound 0.4 µM) | relative viability (Bemcentinib + OSI-027; first compound 1.265 µM) | relative viability (Bemcentinib + OSI-027; first compound 4 µM) | relative viability (Bemcentinib + AZD7762; first compound 0.04 µM) | relative viability (Bemcentinib + AZD7762; first compound 0.1265 µM) | relative viability (Bemcentinib + AZD7762; first compound 0.4 µM) | relative viability (Bemcentinib + AZD7762; first compound 1.265 µM) | relative viability (Bemcentinib + AZD7762; first compound 4 µM) | relative viability (Bemcentinib + Pemetrexed; first compound 0.04 µM) | relative viability (Bemcentinib + Pemetrexed; first compound 0.1265 µM) | relative viability (Bemcentinib + Pemetrexed; first compound 0.4 µM) | relative viability (Bemcentinib + Pemetrexed; first compound 1.265 µM) | relative viability (Bemcentinib + Pemetrexed; first compound 4 µM)
1 | A-427 | 1.14 | 1.02 | 1.11 | 1.16 | 1.17 | 0.455 | 0.511 | 0.492 | 0.427 | 0.472 | 0.75 | 0.856 | 0.746 | 0.63 | 0.637 | 0.966 | 1.02 | 1.08 | 0.928 | 0.936
2 | NCI-H2126 | 0.696 | 0.724 | 0.728 | 0.667 | 0.676 | 0.679 | 0.692 | 0.756 | 0.688 | 0.683 | 1.05 | 1.01 | 0.999 | 1.09 | 1.09 | 0.732 | 0.671 | 0.713 | 0.646 | 0.831
3 | NCI-H647 | 1.23 | 1.27 | 1.19 | 1.25 | 1.44 | 0.696 | 0.799 | 0.637 | 0.666 | 0.649 | 0.346 | 0.539 | 0.498 | 0.511 | 0.31 | 0.175 | 0.164 | 0.199 | 0.156 | 0.152
4 | ChaGo-K-1 | – | – | – | – | – | 0.515 | 0.794 | 0.626 | 0.614 | 0.531 | 0.838 | 0.976 | 0.919 | 0.907 | 0.958 | 0.265 | 0.262 | 0.274 | 0.244 | 0.251
5 | UMC-11 | 1.08 | 0.982 | 1.02 | 1.04 | 1.1 | 0.466 | 0.528 | 0.504 | 0.516 | 0.473 | – | – | – | – | – | 0.839 | 0.881 | 0.969 | 0.808 | 0.728
6 | LOU-NH91 | 1.08 | 0.595 | 0.997 | 0.948 | 0.961 | 0.697 | 0.703 | 0.721 | 0.749 | 0.775 | 0.423 | 0.77 | 0.791 | 0.806 | 0.799 | 0.408 | 0.369 | 0.4 | 0.45 | 0.376
7 | HCC-44 | 0.756 | 0.699 | 0.746 | 0.692 | 0.733 | 0.452 | 0.661 | 0.446 | 0.483 | 0.511 | 1.07 | 1.05 | 1.01 | 1.08 | 1.04 | 0.676 | 0.665 | 0.684 | 0.723 | 0.679
8 | NCI-H661 | 0.717 | 0.58 | 0.418 | 0.542 | 0.666 | 0.716 | 0.719 | 0.762 | 0.775 | 0.745 | – | – | – | – | – | 0.906 | 0.953 | 0.965 | 0.899 | 0.991
9 | NCI-H522 | – | – | – | – | – | 0.714 | 0.548 | 0.614 | 0.656 | 0.728 | 0.872 | 0.766 | 0.771 | 0.949 | 0.849 | 1.03 | 0.908 | 0.897 | 1.04 | 1.18
10 | NCI-H1563 | 1.23 | 1.11 | 1.12 | 0.99 | 1.22 | 0.783 | 0.812 | 0.819 | 0.766 | 0.757 | – | – | – | – | – | 0.768 | 0.716 | 0.844 | 0.663 | 0.772
11 | NCI-H1703 | 0.888 | 0.461 | 0.12 | 0.148 | 0.164 | – | – | – | – | – | 0.109 | 0.121 | 0.145 | 0.16 | 0.134 | – | – | – | – | –
12 | NCI-H2009 | 1.23 | 1.18 | 1.21 | 1.28 | 1.36 | 0.626 | 0.743 | 0.684 | 0.709 | 0.665 | – | – | – | – | – | 1.03 | 1.07 | 1.12 | 1.07 | 1.01
13 | Calu-6 | 1.08 | 0.97 | 1.06 | 1.01 | 1.07 | – | – | – | – | – | – | – | – | – | – | – | – | – | – | –
14 | NCI-H727 | 0.415 | 0.246 | 0.311 | 0.246 | 0.432 | 0.552 | 0.631 | 0.645 | 0.592 | 0.576 | 0.527 | 0.575 | 0.483 | 0.495 | 0.569 | – | – | – | – | –
15 | NCI-H2023 | 0.687 | 0.635 | 0.698 | 0.636 | 0.736 | 0.323 | 0.511 | 0.462 | 0.419 | 0.445 | – | – | – | – | – | 0.225 | 0.287 | 0.217 | 0.213 | 0.198
16 | EBC-1 | 0.935 | 0.874 | 0.884 | 0.904 | 1.1 | – | – | – | – | – | – | – | – | – | – | – | – | – | – | –
17 | NCI-H2170 | – | – | – | – | – | 0.739 | 0.743 | 0.76 | 0.729 | 0.807 | 0.839 | 1.07 | 0.902 | 0.93 | 0.925 | 0.264 | 0.278 | 0.283 | 0.244 | 0.264
18 | SW 900 | – | – | – | – | – | 0.446 | 0.544 | 0.71 | 0.473 | 0.419 | 0.559 | 0.65 | 0.689 | 0.552 | 0.538 | 0.492 | 0.541 | 0.485 | 0.433 | 0.48
19 | NCI-H1299 | 0.962 | 1.03 | 0.978 | 1 | 1.06 | – | – | – | – | – | – | – | – | – | – | – | – | – | – | –
20 | NCI-H1650 | – | – | – | – | – | 0.59 | 0.913 | 0.624 | 0.72 | 0.724 | – | – | – | – | – | 0.327 | 0.337 | 0.414 | 0.391 | 0.364
21 | NCI-H1623 | – | – | – | – | – | 0.401 | 0.418 | 0.424 | 0.45 | 0.502 | – | – | – | – | – | – | – | – | – | –
22 | SK-LU-1 | 1.25 | 1.28 | 1.18 | 1.17 | 1.36 | 0.37 | 0.382 | 0.35 | 0.369 | 0.331 | – | – | – | – | – | 1.02 | 1.04 | 1.08 | 1.08 | 0.984
23 | ABC-1 | 0.972 | 0.947 | 0.745 | 0.759 | 1.22 | 0.435 | 0.402 | 0.469 | 0.683 | 0.507 | – | 0.937 | 0.799 | 0.816 | 1.09 | – | – | – | – | –
